Holding throughout (assay type): in vivo
For test [1], the system named is Chronic Constriction Injury (CCI) rat model of neuropathic pain. Kind of test: CCI-induced static allodynia (von Frey hairs, PWT). The procedure: (§1) Male Sprague Dawley rats weighing 150-400 g obtained from Charles River (Manston, Kent, UK.) were housed in groups of 3. All animals were kept under a 12 h light/dark cycle (lights on at 07 h 00 min) with food and water ad libitum. All experiments were carried out by an observer blind to the treatments and in accordance with the Home Office Animals (Scientific Procedures) Act 1986.
(§2) The CCI of sciatic nerve was performed as previously described by Bennett and Xie (Bennett G J, Xie Y K. A peripheral mononeuropathy in rat that produces disorders of pain sensation like those seen in man. Pain:33:87-107, 1988). Animals were anaesthetised with a 2% isofluorane/O2 mixture. The right hind thigh was shaved and swabbed with 1% iodine. Animals were then transferred to a homeothermic blanket for the duration of the procedure and anaesthesia maintained during surgery via a nose cone. The skin was cut along the line of the thighbone. The common sciatic nerve was exposed at the middle of the thigh by blunt dissection through biceps femoris. About 7 mm of nerve was freed proximal to the sciatic trifurcation, by inserting forceps under the nerve and the nerve gently lifted out of the thigh. Suture was pulled under the nerve using forceps and tied in a simple knot until slight resistance was felt and then double knotted. The procedure was repeated until 4 ligatures (4-0 silk) were tied loosely around the nerve with approx 1 mm spacing. The incision was closed in layers.
(§3) Animals were habituated to wire bottom test cages prior to the assessment of allodynia. Static allodynia was evaluated by application of von Frey hairs (Stoelting, Wood Dale, Ill., USA.) in ascending order of force (0.6, 1, 1.4, 2, 4, 6, 8, 10, 15 and 26 grams) to the plantar surface of hind paws. Each von Frey hair was applied to the paw for a maximum of 6 sec, or until a withdrawal response occurred. Once a withdrawal response to a von Frey hair was established, the paw was re-tested, starting with the filament below the one that produced a withdrawal, and subsequently with the remaining filaments in descending force sequence until no withdrawal occurred. The highest force of 26 g lifted the paw as well as eliciting a response, thus represented the cut off point. Each animal had both hind paws tested in this manner. The lowest amount of force required to elicit a response was recorded as paw withdrawal threshold (PWT) in grams. Static allodynia was defined as present if animals responded to a stimulus of, or less than, 4 g, which is innocuous in naive rats (Field M J, Bramwell S, Hughes J, Singh L. Detection of static and dynamic components of mechanical allodynia in rat models of neuropathic pain: are they signalled by distinct primary sensory neurones? Pain, 1999; 83:303-11).
(§4) All the experiments were conducted blind. Static allodynia was expressed as median [LQ; UQ] and analysed by Mann Whitney U test. Dynamic allodynia and thermal hyperalgesia were expressed as arithmetic mean±SEM and analysed by ANOVA.

Test [2] has the same test system. Kind of test: CCI-induced dynamic allodynia (cotton bud, PWL). On the procedure:
as §1, §2
Dynamic allodynia was assessed by lightly stroking the plantar surface of the hind paw with a cotton bud. To avoid recording general motor activity, care was taken to perform this procedure in fully habituated rats that were not active. At least two measurements were taken at each time point, the mean of which represented the paw withdrawal latency (PWL). […] A pain withdrawal response was often accompanied with repeated flinching or licking of the paw. Dynamic allodynia was considered to be present if animals responded to the cotton stimulus within 8 sec of commencing stroking (Field et al, 1999).
as §4

Test [3] concerns Streptozocin (STZ)-induced diabetes neuropathy in the rat. Kind of test: STZ-induced static allodynia (von Frey hairs, PWT). The procedure: as §1
Diabetes was induced by a single intraperitoneal injection of streptozotocin (50 mg/kg) freshly dissolved in 0.9% sterile saline. Streptozotocin injection induces a reproducible mechanical allodynia within 3 weeks, lasting for at least 7 weeks (Chen and Pan, (Chen S R and Pan H L. Hypersensitivity of Spinothalamic Tract Neurons Associated With Diabetic Neuropathic Pain in Rats. J Neurophysiol 87: 2726-2733, 2002).
as §3, §4

[4] abbreviates: 25 mg/kg PO (MED), post administration.
Setting [5] is: 12.5, 25 and 50 mg/kg PO, from 14 days post surgery.
Setting [6] is: highest dose (50 mg/kg PO) vs gabapentin 100 mg/kg PO.
Where [7] appears, read: highest dose (50 mg/kg PO), post dose, p<0.01 vs vehicle.

Turning to `CC(=O)N(C1CC1)C1CC(C)N(C(=O)c2cccnc2)c2ccccc21` (centres unmarked) [N-cyclopropyl-N-[2-methyl-1-(pyridine-3-carbonyl)-1,2,3,4-tetrahydro-quinolin-4-yl]-acetamide], in test [1] (setting [4]), the “time of peak effect, static allodynia” value came out at 1 h. In addition, the “effect on maintenance of CCI-induced static allodynia” value in test [1] (setting [5]) was “reversed the maintenance of CCI-induced static and dynamic allodynia in a dose dependent manner”. Also, the “MED, static allodynia” value in test [1] (PO) was 25 mg/kg. In addition, the “static allodynia reversal relative to gabapentin” value in test [1] (setting [6]) is on record as “curve profile comparable to gabapentin”. The “onset of anti-allodynic effect, static allodynia” value in test [1] (setting [7]) was 30 min. In addition, the “time of peak effect, dynamic allodynia” value in test [2] (setting [4]) came out at 1 h. Moreover, in test [2] (setting [5]), the “effect on maintenance of CCI-induced dynamic allodynia” value was “reversed the maintenance of CCI-induced static and dynamic allodynia in a dose dependent manner”. Also, the “MED, dynamic allodynia” value in test [2] (PO) amounted to 25 mg/kg. In addition, in test [2] (setting [6]), the “dynamic allodynia effect relative to gabapentin” value is listed as “less potent but significantly different from vehicle treated CCI rats”. Also, in test [2] (highest dose (50 mg/kg PO), 2 hrs post administration, vehicle 3.5±0.7), the “dynamic allodynia paw withdrawal latency (mean±SEM)” value turned out to be 11.8±1.0. For the same compound, the “onset of anti-allodynic effect, dynamic allodynia” value in test [2] (setting [7]) came to 30 min. For the same compound, the “duration of biologically relevant effect, STZ static allodynia” value in test [3] (25 mg/kg PO) was “up to 2 hr”. The “time of peak effect, STZ static allodynia” value in test [3] (25 mg/kg PO, post compound dose) came to 1 h. Moreover, the “effect on maintenance of STZ-induced static allodynia” value in test [3] (compound 25 mg/kg PO, gabapentin 100 mg/kg PO (positive control)) was “reversed”.

The record behind these values is patent US20090170897A1, “Method of Treating Neuropathic Pain” (Pfizer, Inc., priority 2004, published 2009).
